The source of these data is the OPERA property sets (Mansouri et al. 2018).

`CCc1cccc(N(C(C)=O)c2ccccc2)c1` had a logP of 3.47.

In turn, `CC(=O)c1cccc(NC(=O)Cc2ccccc2)c1` came in with a logP of 2.62.

Compound `COc1ccccc1NC(=O)Cc1ccccc1` had a logP of 2.68.

In the case of `O=C(Cc1ccccc1)Nc1ccc(O)cc1`, the logP is 1.82.

`O=C(Cc1ccccc1)Nc1cccc([N+](=O)[O-])c1` returned a logP of 2.93.

Take `N#Cc1cccc(NC(=O)Cc2ccccc2)c1`: the logP amounted to 2.75.

`O=C(Cc1ccccc1)Nc1ccccc1` returned a logP of 2.7.

`O=C(Cc1ccccc1)Nc1ccc(Cl)cc1` returned a logP of 3.54.

`O=C(Cc1ccccc1)Nc1cccc(I)c1`: the logP was 3.91.

With `COc1ccc(NC(=O)Cc2ccccc2)cc1`, the logP was 2.49.

`CC(=O)N(c1ccccc1)c1ccc(C)cc1` yielded a logP of 3.05.

`Nc1ccccc1NC(=O)Cc1ccccc1`: the logP stood at 1.45.

In turn, `O=C(Cc1ccccc1)Nc1cccc(F)c1` registered a logP of 3.1.

Turning to `O=C(Cc1ccccc1)Nc1ccccc1O`, the logP worked out at 2.4.

Take `CC(=O)c1ccc(NC(=O)Cc2ccccc2)cc1`: the logP came out at 2.75.

`O=C(Cc1ccccc1)Nc1ccc(F)cc1` registered a logP of 2.86.

`Nc1cccc(NC(=O)Cc2ccccc2)c1`: the logP was determined as 1.59.

For `O=C(Cc1ccccc1)Nc1cccc(O)c1`, the log partition coefficient (logP) worked out at 2.22.

`O=C(Cc1ccccc1)Nc1ccccc1F` gave a logP of 2.62.

With `O=C(Cc1ccccc1)Nc1ccc(Br)cc1`, the logP amounted to 3.7.

`CS(=O)(=O)Oc1cccc(NC(=O)Cc2ccccc2)c1` yielded a logP of 2.32.

In turn, `O=C(Cc1ccccc1)Nc1ccc([N+](=O)[O-])cc1` registered a logP of 3.18.

Take `CCOc1cccc(NC(=O)Cc2ccccc2)c1`: the logP amounted to 3.23. The logP values of the last two compounds are within 0.2 log units of each other.

`CNc1cccc(NC(=O)Cc2ccccc2)c1`: the logP stood at 2.31.

`O=C(Cc1ccccc1)Nc1cccc(Br)c1` showed a logP of 3.77.

As to `Cc1cccc(NC(=O)Cc2ccccc2)c1`, the logP is 3.14.

Turning to `CC(=O)Oc1cccc(NC(=O)Cc2ccccc2)c1`, the logP is 2.37.

Compound `CCNc1cccc(NC(=O)Cc2ccccc2)c1` yielded a logP of 2.59.

Turning to `COc1cccc(NC(=O)Cc2ccccc2)c1`, the logP was 2.86.

`O=C(Cc1ccccc1)Nc1ccccc1[N+](=O)[O-]` displayed a logP of 2.73.
